Measured values taken from paper PMC6874179, “Development of Macrocycle Kinase Inhibitors for ALK2 Using Fibrodysplasia Ossificans Progressiva‐Derived Endothelial Cells” (JBMR Plus, 2019).

What was measured:
caALK1 = target: T1, caALK1 (Homo sapiens, UniProt P37023, Q201D); assay: BRE-LUC with constitutive active ALK1 in C2C12 cells; type: cell-based; details: compound 0.5μM 16 hours
T1 construct: expressed in transfected cells; host or cells: C2C12 murine myofibroblast cells
Protocol: (§1) Compounds were added for 16 hours at 0.5μM before luciferase activity was measured.
(§2) For luciferase reporter assays, cells were seeded in 24-well plates and transfected with DharmaFECT Duo (Fisher Scientific, Landsmeer, The Netherlands), following the recommendations of the manufacturer. 48 hours after transfection the cells were harvested and lysed. […] Each transfection mixture was equalized with empty vector when necessary and every experiment was performed in triplicate.

caALK6 = assay: BRE-LUC with constitutive active ALK6 in C2C12 cells; type: cell-based; details: compound 0.5μM 16 hours
Protocol: as §1, §2

GSG2 = target: T2, GSG2 (Homo sapiens, UniProt Q8TF76); assay: Proqinase Kinase profiling; type: biochemical; details: read-out: % inhibition at 100nM
T2 construct: purchased DiscoverX

RPS6KA5 = target: T3, RPS6KA5 (Homo sapiens, UniProt O75582); assay: Proqinase Kinase profiling; type: biochemical; details: read-out: % inhibition at 100nM
T3 construct: purchased DiscoverX
T3 sequence (O75582 whole entry): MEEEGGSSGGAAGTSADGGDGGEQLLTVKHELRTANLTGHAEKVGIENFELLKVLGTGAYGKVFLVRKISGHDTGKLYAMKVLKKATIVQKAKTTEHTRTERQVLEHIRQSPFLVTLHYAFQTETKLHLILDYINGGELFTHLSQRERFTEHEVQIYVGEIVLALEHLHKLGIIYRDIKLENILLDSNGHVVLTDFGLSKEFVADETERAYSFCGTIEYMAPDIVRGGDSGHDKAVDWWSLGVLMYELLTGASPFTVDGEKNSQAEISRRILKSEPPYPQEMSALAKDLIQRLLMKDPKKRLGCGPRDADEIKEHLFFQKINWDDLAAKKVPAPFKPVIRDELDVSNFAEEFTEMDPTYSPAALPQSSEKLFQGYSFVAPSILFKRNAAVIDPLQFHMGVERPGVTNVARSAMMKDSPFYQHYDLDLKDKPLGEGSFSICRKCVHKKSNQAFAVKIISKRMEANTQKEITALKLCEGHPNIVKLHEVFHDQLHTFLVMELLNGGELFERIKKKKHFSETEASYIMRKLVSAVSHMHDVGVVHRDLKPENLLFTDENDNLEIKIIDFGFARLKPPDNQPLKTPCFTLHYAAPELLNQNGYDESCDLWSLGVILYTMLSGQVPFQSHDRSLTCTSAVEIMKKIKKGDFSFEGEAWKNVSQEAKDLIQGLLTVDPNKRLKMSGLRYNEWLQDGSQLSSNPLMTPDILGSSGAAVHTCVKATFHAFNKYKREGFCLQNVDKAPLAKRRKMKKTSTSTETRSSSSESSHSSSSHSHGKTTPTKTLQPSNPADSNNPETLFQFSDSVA

PDGFRB = target: T4, PDGFRB (Homo sapiens, UniProt P09619); assay: Proqinase Kinase profiling; type: biochemical; details: read-out: % inhibition at 100nM
T4 construct: purchased DiscoverX
T4 sequence (P09619 33-1106): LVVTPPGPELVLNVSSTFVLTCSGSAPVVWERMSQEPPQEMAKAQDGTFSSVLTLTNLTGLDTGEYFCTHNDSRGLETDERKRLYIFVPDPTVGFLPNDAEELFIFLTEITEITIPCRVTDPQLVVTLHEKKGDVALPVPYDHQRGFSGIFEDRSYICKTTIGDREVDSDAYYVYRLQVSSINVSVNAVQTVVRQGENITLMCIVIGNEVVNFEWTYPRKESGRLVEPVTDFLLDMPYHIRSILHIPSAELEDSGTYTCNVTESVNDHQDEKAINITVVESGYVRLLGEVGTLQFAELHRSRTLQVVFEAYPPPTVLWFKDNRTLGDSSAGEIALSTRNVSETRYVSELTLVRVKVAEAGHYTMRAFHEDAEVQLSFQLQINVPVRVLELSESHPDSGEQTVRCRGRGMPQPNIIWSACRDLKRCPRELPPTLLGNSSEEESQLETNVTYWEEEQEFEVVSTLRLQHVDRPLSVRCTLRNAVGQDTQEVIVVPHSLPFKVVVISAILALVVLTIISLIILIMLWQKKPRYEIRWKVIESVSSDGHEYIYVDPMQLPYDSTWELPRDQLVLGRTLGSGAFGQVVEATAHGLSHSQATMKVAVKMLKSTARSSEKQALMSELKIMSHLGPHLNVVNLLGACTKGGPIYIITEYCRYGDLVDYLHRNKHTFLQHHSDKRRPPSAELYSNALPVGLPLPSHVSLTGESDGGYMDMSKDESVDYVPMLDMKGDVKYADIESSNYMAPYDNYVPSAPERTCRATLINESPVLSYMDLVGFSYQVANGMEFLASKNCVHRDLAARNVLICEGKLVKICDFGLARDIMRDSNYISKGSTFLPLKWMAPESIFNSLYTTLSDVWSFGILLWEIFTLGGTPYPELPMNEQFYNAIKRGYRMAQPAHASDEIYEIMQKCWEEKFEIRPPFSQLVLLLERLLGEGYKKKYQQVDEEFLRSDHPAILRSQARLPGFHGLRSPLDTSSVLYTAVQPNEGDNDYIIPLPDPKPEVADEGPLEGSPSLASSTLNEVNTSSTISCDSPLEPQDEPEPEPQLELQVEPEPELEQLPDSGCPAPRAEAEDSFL

NUAK1 = target: T5, NUAK1 (Homo sapiens, UniProt O60285); assay: Proqinase Kinase profiling; type: biochemical; details: read-out: % inhibition at 100nM
T5 construct: purchased DiscoverX
T5 sequence (O60285 whole entry): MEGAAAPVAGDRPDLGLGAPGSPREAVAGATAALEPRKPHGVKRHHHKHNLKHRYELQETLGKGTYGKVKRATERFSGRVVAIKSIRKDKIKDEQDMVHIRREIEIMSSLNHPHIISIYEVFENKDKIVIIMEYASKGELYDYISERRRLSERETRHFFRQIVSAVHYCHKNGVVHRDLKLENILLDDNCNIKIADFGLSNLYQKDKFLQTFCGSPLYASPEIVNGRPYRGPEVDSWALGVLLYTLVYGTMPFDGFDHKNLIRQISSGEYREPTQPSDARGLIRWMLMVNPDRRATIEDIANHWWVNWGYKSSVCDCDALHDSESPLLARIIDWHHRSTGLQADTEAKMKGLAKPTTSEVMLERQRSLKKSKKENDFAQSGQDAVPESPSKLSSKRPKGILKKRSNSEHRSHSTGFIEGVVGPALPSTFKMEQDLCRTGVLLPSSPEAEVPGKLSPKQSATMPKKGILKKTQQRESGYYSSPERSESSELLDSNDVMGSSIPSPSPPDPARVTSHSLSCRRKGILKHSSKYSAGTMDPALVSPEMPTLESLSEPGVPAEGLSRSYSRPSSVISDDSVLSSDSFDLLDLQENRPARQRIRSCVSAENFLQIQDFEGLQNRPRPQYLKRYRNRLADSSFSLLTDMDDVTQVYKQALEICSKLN

FGFR3 = target: T6, FGFR3 (Homo sapiens, UniProt P22607); assay: Proqinase Kinase profiling; type: biochemical; details: read-out: % inhibition at 100nM
T6 construct: purchased DiscoverX

MET_D1228H = target: T7, MET_D1228H (Homo sapiens, UniProt P08581, D1228H); assay: Proqinase Kinase profiling; type: biochemical; details: read-out: % inhibition at 100nM
T7 construct: purchased DiscoverX
T7 sequence (P08581 25-1390 D1228H): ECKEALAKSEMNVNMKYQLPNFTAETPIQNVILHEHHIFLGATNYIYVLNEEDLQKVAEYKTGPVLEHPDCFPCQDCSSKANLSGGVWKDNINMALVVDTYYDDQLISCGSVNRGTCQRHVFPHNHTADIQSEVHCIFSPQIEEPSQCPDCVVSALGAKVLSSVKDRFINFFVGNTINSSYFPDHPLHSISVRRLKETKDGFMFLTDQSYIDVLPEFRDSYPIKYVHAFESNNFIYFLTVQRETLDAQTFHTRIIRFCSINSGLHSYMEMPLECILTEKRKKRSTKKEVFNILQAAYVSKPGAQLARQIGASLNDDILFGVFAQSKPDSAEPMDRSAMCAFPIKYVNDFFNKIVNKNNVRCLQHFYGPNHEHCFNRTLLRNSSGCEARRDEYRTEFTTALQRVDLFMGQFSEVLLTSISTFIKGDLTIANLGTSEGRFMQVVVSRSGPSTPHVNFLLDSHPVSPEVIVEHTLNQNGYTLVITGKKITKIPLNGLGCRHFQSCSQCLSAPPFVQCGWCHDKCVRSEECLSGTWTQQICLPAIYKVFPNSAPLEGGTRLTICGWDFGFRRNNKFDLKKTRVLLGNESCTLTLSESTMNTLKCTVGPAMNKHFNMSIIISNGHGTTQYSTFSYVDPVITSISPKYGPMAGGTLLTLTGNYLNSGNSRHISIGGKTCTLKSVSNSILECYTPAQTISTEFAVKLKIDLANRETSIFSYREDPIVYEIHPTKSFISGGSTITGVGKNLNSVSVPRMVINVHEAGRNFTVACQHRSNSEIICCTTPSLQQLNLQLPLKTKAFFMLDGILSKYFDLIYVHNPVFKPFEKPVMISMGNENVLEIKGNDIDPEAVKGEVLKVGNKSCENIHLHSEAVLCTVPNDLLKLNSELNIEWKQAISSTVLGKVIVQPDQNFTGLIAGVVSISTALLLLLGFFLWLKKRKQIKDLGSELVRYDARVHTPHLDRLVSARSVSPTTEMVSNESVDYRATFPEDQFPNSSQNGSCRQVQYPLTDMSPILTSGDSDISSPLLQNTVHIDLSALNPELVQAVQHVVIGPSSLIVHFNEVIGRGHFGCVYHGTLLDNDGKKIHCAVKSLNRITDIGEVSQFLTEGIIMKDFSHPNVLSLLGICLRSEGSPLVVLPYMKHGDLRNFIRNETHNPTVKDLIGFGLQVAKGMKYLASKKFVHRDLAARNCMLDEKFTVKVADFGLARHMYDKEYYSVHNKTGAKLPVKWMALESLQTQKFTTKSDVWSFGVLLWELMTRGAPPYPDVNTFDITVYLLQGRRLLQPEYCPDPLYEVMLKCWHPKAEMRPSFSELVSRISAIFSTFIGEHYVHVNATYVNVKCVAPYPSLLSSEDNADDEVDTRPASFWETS

TEK_Y1108F = target: T8, TEK_Y1108F (Homo sapiens, UniProt Q02763, Y1108F); assay: Proqinase Kinase profiling; type: biochemical; details: read-out: % inhibition at 100nM
T8 construct: purchased DiscoverX
T8 sequence (Q02763 23-1124 Y1108F): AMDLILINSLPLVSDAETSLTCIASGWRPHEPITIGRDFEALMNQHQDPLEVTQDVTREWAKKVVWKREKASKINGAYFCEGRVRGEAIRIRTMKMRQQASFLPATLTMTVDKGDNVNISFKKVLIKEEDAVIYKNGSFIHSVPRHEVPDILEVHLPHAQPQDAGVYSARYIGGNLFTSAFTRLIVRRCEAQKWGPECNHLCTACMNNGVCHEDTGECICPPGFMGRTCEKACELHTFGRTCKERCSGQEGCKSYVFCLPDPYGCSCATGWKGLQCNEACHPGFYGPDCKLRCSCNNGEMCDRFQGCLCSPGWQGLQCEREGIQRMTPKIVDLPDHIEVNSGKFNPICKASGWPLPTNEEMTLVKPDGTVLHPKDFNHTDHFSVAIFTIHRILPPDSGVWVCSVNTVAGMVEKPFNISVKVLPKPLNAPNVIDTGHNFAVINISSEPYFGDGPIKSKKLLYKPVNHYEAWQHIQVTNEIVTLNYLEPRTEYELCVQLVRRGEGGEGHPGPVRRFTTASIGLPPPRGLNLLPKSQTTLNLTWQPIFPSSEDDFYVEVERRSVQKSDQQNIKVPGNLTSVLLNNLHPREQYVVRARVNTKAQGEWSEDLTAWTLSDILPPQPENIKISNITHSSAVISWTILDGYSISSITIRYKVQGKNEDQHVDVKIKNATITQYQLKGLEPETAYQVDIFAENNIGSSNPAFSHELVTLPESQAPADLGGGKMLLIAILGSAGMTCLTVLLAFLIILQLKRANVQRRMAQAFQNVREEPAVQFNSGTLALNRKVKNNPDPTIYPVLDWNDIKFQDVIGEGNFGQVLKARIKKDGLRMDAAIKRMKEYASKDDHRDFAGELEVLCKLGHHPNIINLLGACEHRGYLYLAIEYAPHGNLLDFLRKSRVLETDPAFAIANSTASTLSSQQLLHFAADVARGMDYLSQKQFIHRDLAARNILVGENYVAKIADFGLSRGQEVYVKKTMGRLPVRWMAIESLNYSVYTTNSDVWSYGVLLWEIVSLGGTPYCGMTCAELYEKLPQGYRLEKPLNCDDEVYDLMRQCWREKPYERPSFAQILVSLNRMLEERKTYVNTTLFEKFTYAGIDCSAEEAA

DDR2_N456S = target: T9, DDR2_N456S (Homo sapiens, UniProt Q16832, N456S); assay: Proqinase Kinase profiling; type: biochemical; details: read-out: % inhibition at 100nM
T9 construct: purchased DiscoverX

MAP2K4 = target: T10, MAP2K4 (Homo sapiens, UniProt P45985); assay: Proqinase Kinase profiling; type: biochemical; details: read-out: % inhibition at 100nM
T10 construct: purchased DiscoverX

PKN3 = target: T11, PKN3 (Homo sapiens, UniProt Q6P5Z2); assay: Proqinase Kinase profiling; type: biochemical; details: read-out: % inhibition at 100nM
T11 construct: purchased DiscoverX

DDR2_T654M = target: T12, DDR2_T654M (Homo sapiens, UniProt Q16832, T654M); assay: Proqinase Kinase profiling; type: biochemical; details: read-out: % inhibition at 100nM
T12 construct: purchased DiscoverX

CAMK2G = target: T13, CAMK2G (Homo sapiens, UniProt Q13555); assay: Proqinase Kinase profiling; type: biochemical; details: read-out: % inhibition at 100nM
T13 construct: purchased DiscoverX

TTBK1 = target: T14, TTBK1 (Homo sapiens, UniProt Q5TCY1); assay: Proqinase Kinase profiling; type: biochemical; details: read-out: % inhibition at 100nM
T14 construct: purchased DiscoverX

CDC7_DBF4 = target: T15, CDC7_DBF4 (Homo sapiens, UniProt O00311); assay: Proqinase Kinase profiling; type: biochemical; details: read-out: % inhibition at 100nM
T15 construct: purchased DiscoverX

PKMYT1 = target: T16, PKMYT1 (Homo sapiens, UniProt Q99640); assay: Proqinase Kinase profiling; type: biochemical; details: read-out: % inhibition at 100nM
T16 construct: purchased DiscoverX

VRK2 = target: T17, VRK2 (Homo sapiens, UniProt Q86Y07); assay: Proqinase Kinase profiling; type: biochemical; details: read-out: % inhibition at 100nM
T17 construct: purchased DiscoverX

TTBK2 = target: T18, TTBK2 (Homo sapiens, UniProt Q6IQ55); assay: Proqinase Kinase profiling; type: biochemical; details: read-out: % inhibition at 100nM
T18 construct: purchased DiscoverX

MAP2K7 = target: T19, MAP2K7 (Homo sapiens, UniProt O14733); assay: Proqinase Kinase profiling; type: biochemical; details: read-out: % inhibition at 100nM
T19 construct: purchased DiscoverX

SIK1 = target: T20, SIK1 (Homo sapiens, UniProt P57059); assay: Proqinase Kinase profiling; type: biochemical; details: read-out: % inhibition at 100nM
T20 construct: purchased DiscoverX

ALK/NPM1 = target: T21, ALK/NPM1 (Homo sapiens, UniProt P06748+Q9UM73); assay: Proqinase Kinase profiling; type: biochemical; details: read-out: % inhibition at 100nM
T21 construct: purchased DiscoverX

CDK6_cyclinD3 = target: T22, CDK6_cyclinD3 (Homo sapiens, UniProt Q00534); assay: Proqinase Kinase profiling; type: biochemical; details: read-out: % inhibition at 100nM
T22 construct: purchased DiscoverX

MAP2K5 = target: T23, MAP2K5 (Homo sapiens, UniProt Q13163); assay: Proqinase Kinase profiling; type: biochemical; details: read-out: % inhibition at 100nM
T23 construct: purchased DiscoverX

BUB1B = target: T24, BUB1B (Homo sapiens, UniProt O60566); assay: Proqinase Kinase profiling; type: biochemical; details: read-out: % inhibition at 100nM
T24 construct: purchased DiscoverX

MLK4 = target: T25, MLK4 (Homo sapiens, UniProt Q5TCX8); assay: Proqinase Kinase profiling; type: biochemical; details: read-out: % inhibition at 100nM
T25 construct: purchased DiscoverX

EPHA6 = target: T26, EPHA6 (Homo sapiens, UniProt Q9UF33); assay: Proqinase Kinase profiling; type: biochemical; details: read-out: % inhibition at 100nM
T26 construct: purchased DiscoverX

BRSK2 = target: T27, BRSK2 (Homo sapiens, UniProt Q8IWQ3); assay: Proqinase Kinase profiling; type: biochemical; details: read-out: % inhibition at 100nM
T27 construct: purchased DiscoverX

ALK_F1174L/NPM1 = target: T28, ALK_F1174L/NPM1 (Homo sapiens, UniProt P06748+Q9UM73, F1174L); assay: Proqinase Kinase profiling; type: biochemical; details: read-out: % inhibition at 100nM
T28 construct: purchased DiscoverX

For `c1ccc2c(-c3cnn4cc(-c5ccc(N6CCNCC6)cc5)cnc34)ccnc2c1` [LDN-193189, reference compound], the “Inhibition of caALK1-driven BRE-LUC activity” value (caALK1) was “significantly inhibited” and the “Inhibition of caALK6-driven BRE-LUC activity” value (caALK6) was “significantly inhibited”.
In the case of `Clc1cc2cc(c1)-c1cnn3ccc(nc13)NCCOCCO2` [OD36], the inhibition at 0.1 µM (GSG2) is reported as 50%, the inhibition at 0.1 µM (RPS6KA5) is reported as -3% and the inhibition at 0.1 µM (PDGFRB) is reported as 57%. The inhibition at 0.1 µM (NUAK1) was 6%, the inhibition at 0.1 µM (FGFR3) was 7% and the inhibition at 0.1 µM (MET_D1228H) was 8%. It also gave an inhibition at 0.1 µM (TEK_Y1108F) of -27%.
Compound `Cc1cc2cc(c1)-c1cnn3ccc(nc13)NCCNC(=O)CCN(C)C2` [OD52] has an inhibition at 0.1 µM (DDR2_N456S) of 33%, an inhibition at 0.1 µM (GSG2) of 20% and an inhibition at 0.1 µM (MAP2K4) of 17%. For the same compound, the inhibition at 0.1 µM (PKN3) was 16%, the inhibition at 0.1 µM (DDR2_T654M) was 15% and the inhibition at 0.1 µM (CAMK2G) was 10%. It also gave an inhibition at 0.1 µM (TTBK1) of 8%, an inhibition at 0.1 µM (RPS6KA5) of 7% and an inhibition at 0.1 µM (CDC7_DBF4) of 6%. It also gave an inhibition at 0.1 µM (PKMYT1) of 6%, an inhibition at 0.1 µM (VRK2) of 6% and an inhibition at 0.1 µM (TTBK2) of 4%. It also gave an inhibition at 0.1 µM (MAP2K7) of 4%, an inhibition at 0.1 µM (PDGFRB) of 3% and an inhibition at 0.1 µM (SIK1) of -2%. It also gave an inhibition at 0.1 µM (NUAK1) of -4%, an inhibition at 0.1 µM (ALK/NPM1) of -5% and an inhibition at 0.1 µM (CDK6_cyclinD3) of -7%. For the same compound, the inhibition at 0.1 µM (MAP2K5) was -9%, the inhibition at 0.1 µM (FGFR3) was -9% and the inhibition at 0.1 µM (BUB1B) was -10%. For the same compound, the inhibition at 0.1 µM (MET_D1228H) was -11%, the inhibition at 0.1 µM (MLK4) was -11% and the inhibition at 0.1 µM (EPHA6) was -12%. It also gave an inhibition at 0.1 µM (BRSK2) of -13%, an inhibition at 0.1 µM (ALK_F1174L/NPM1) of -16% and an inhibition at 0.1 µM (TEK_Y1108F) of -21%.
